From paper PMC6274376, “Naturally Inspired Molecules as Multifunctional Agents for Alzheimer’s Disease Treatment” (Molecules, 2016) come the findings set out here.

In data set [1] the test system is SH-SY5Y cells. Kind of data set: Neurotoxicity, MTT cell viability assay. The note with it: SH-SY5Y cells, MTT. The data set is classed as cell-based, human. How it is done:
Cytotoxic effects in several in vitro or in vivo models have been reported for some chalcones. Therefore, to discriminate the neurotoxic concentrations of the conjugates 3–5 we evaluated the cell viability of human neuronal SH-SY5Y cells after 24 h treatment with these conjugate at different concentrations (1.25–40 μM) using the MTT assay. […] Thus, the presence of an α,β-unsatured carbonyl fragment seems to positively influence the degree of neuronal toxicity, leading to molecules endowed with a favorable SI.
Human neuronal (SH-SY5Y) cells were routinely grown in Dulbecco’s modified Eagle’ Medium (DMEM) supplemented with 10% fetal bovine serum, 2 mmol/L-glutamine, 50 U·mL^−1penicillin and 50 μg·mL^−1streptomycin at 37 °C in a humidified incubator with 5% CO2.
To evaluate the neurotoxicity of compounds, the SH-SY5Y cells were seeded in 96-well plates at 2 × 10^4 cells/well, incubated for 24 h and subsequently treated with various concentrations of compounds (1.25–40 µM) for 24 h at 37 °C in 5% CO2;. The cell viability in terms of mitochondrial metabolic function was evaluated by the reduction in 3-(4,5-dimethyl-2-thiazolyl)-2,5-diphenyl-2H-tetrazolium bromide (MTT) to formazan as previously described. The quantity of formazan was directly proportional to the number of viable cells. Briefly, the treatment medium was replaced with MTT (5 mg/mL) in phosphate-buffered saline (PBS) for 2 h at 37 °C in 5% CO2. After washing with PBS, the formazan crystals were dissolved with isopropanol. The amount of formazan was measured (570 nm, reference filter 690 nm) using a multilabel plate reader (VICTOR™ X3, PerkinElmer, Waltham, MA, USA). The neurotoxicity is expressed as concentration of compound resulting in 50% inhibition of cell viability.
(In general: Tetrazolium dyes change colour on reduction, which living cells bring about.)

Data set [2] in a line: Cu(II) chelating assay (bathocuproinedisulfonic acid disodium salt, BCS). It is filed as physicochemical. How it is done:
Data were expressed as chelating activity percentage (Table 2).
The Cu(II) chelating activity of the compounds was determined using the bathocuproinedisulfonic acid disodium salt (BCS) assay as previously described. Briefly, 50 μL of a 0.25 mM CuSO4 solution were mixed for 2 min with 50 μL of 5–20 µM compound solution in 100 µL of HEPES buffer (15 mM). Hydroxylamine (1 mM) was added after 2 min in order to reduce non-chelated cupric ions into cuprous ones. Finally, 50 μL of BCS (5 mM) or water (blank) was added and the absorbance at 490 nm was measured by spectrophotometry using a multilabel plate reader (VICTOR™ X3, PerkinElmer, Waltham, MA, USA) immediately and at 5 min. Na2EDTA (5–20 µM) was used as a positive control. The ability of the test compounds to chelate cupric ions was calculated using the following equation: chelating activity (%) = [1 − (Abs BCS + compound/Abs BCS) × 100].

The target in the next data set is hBACE-1 (Homo sapiens, UniProt P56817). Kind of data set: BACE-1 FRET inhibition assay. It is filed as biochemical. The note with it: FRET assay; average of multiple experiments each in triplicate, ± SEM. The procedure:
The new benzophenone-based hybrids 3–7 presented in this study were first evaluated for their in vitro ability to inhibit the enzymatic activity of BACE-1, by means of a biochemical assay performed using the fluorescence resonance energy transfer (FRET) methodology and in comparison to inhibitor IV [22] as reference compound (Table 1). For the most interesting compounds 3–5, endowed with the orto-hydroxycarbonyl substitution pattern, the neuroprotective potential was determined as lack of toxic effects on neuronal cell viability and as Cu(II) chelating activity (Table 2); moreover, their direct interactions with Cu(II) ion were confirmed by a UV-vis spectrophotometric study.
Inhibition studies were performed using the following procedure: 5 μL of test compound (or DMSO) were pre-incubated with 175 μL of enzyme (10.37 nM, final concentration) in 20 mM NaOAc pH 4.5 containing CHAPS (0.1% w/v) for 1 h at r.t.; M-2420 (3 μM, final concentration) was then added and left to react for 15 min. The fluorescence signal was read at λem = 405 nm (λexc = 320 nm). DMSO concentration in the final mixture was maintained below 5% (v/v) to guarantee no significant loss of enzyme activity.Fluorescence intensities with and without inhibitor were compared and the percent inhibition due to the presence of test compounds was calculated. The background signal was measured in control wells containing all the reagents, except theenzymeand subtracted. The % inhibition due to the presence of increasing test compound concentration was calculated by the following expression: 100 − (IFi/IFo × 100) where IFi and IFo are the fluorescence intensities obtained for the enzyme in the presence and in the absence of inhibitor, respectively. Inhibition curves were obtained for each compound by plotting the % inhibition versus the logarithm of inhibitor concentration in the assay sample. The linear regression parameters were determined and the IC50 extrapolated (GraphPad Prism 4.0, GraphPad Software Inc., San Diego, CA, USA).

Data set [3] deals with SH-SY5Y cells. Kind of data set: Inhibition of Cu(II)-mediated intracellular ROS formation (H2DCF-DA probe). It is filed as cell-based, human. Conditions: 5 and 10 µM compound, H2O2 (100 µM)/CuSO4 (25 µM), 30 min. How it is done: Our attention was then focused on the study of the intracellular antioxidant effect mediated by Cu(II) chelation. Therefore, compound 5 was selected to be studied in SH-SH5Y cells for its ability to counteract ROS formation elicited by Fenton reaction with CuSO4 (25 µM) and H2O2 (100 µM), and using 2′,7′-dichlorodihydrofluorescein diacetate (H2DCF-DA) as the fluorescent probe.
The intracellular antioxidant activity of the compounds was evaluated in SH-SY5Y cells as previously described with minor changes. Briefly, the SH-SY5Y cells were seeded in 96-well plates at 3 × 10^4 cells/well and incubated for 24 h at 37 °C in 5% CO2. […] The ROS formation was measured (excitation at 485 nm and emission at 535 nm) using a multilabel plate reader (VICTOR™ X3). The values are expressed as arbitrary fluorescence units (AUF).
Figure 2 Effect of compound 5 on ROS formation elicited by H2O2/CuSO4 in SH-SY5Y cells. […] At the end of the incubation, intracellular ROS formation was determined using a fluorescence probe, as described in the Materials and Methods section. The arbitrary units of fluorescence (AUF) values are shown as mean ± SD of at least three independent experiments (^### P < 0.001 versus untreated cells, *** P < 0.001 versus cells treated with H2O2/CuSO4, at ANOVA with Bonferroni’s Post Hoc Test).

Where “and” joins values, the source holds several entries; their conditions need not be identical. Identical values can stand only once.

Chain of hBACE-1 (P56817 46-501): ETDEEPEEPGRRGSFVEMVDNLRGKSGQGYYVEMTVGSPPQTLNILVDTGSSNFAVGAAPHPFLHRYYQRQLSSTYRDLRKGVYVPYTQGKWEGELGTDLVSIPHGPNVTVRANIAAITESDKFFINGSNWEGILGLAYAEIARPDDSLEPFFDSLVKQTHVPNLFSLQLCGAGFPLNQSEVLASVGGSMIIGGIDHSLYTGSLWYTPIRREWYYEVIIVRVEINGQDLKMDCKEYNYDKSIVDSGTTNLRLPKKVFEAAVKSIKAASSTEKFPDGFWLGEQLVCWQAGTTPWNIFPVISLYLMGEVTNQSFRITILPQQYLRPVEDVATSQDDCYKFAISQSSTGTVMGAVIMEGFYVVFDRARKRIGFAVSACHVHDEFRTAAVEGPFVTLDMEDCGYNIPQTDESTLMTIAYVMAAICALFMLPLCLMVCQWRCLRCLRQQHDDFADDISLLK

For orientation: IC50 means the concentration at which inhibition is half-maximal. Lower therefore signals inhibition by little substance. As to `CN(Cc1ccccc1)Cc1ccc(C(=O)c2ccc(OCCOc3ccc(C(=O)/C=C/c4cccc5ccccc45)c(O)c3)cc2)cc1` [Compound 5, E-1-{4-[2-(4-4-Benzylmethylaminomethylbenzoylphenoxy)ethoxy]-2-hydroxyphenyl}-3-(naphthalen-1-yl)-prop-2-en-1-one], the IC50 in the data set with SH-SY5Y cells [1] (Homo sapiens, 24 h treatment, 1.25–40 µM, mean ± SD) is above 40 µM; on hBACE-1, 4.02 ± 0.29 µM. Besides, in the data set on SH-SY5Y cells [1] (24 h, 1.25–40 μM), the neurotoxic effects entry was “not”. The “Cu(II)-Chelating Activity” value in data set [2] (5 µM compound, fixed 40 µM CuSO4) was 9.48%; in data set [2] (10 µM compound, fixed 40 µM CuSO4), 13.78%; in data set [2] (20 µM compound, fixed 40 µM CuSO4, mean ± SD) it was 19.73% and 19.73 ± 0.30%. In addition, the “ROS formation evoked by H2O2/CuSO4 (arbitrary fluorescence units)” value with SH-SY5Y cells [3] is “significantly decreased”.
